US20230416329A1, “A PEPTIDE WITH DISULFIDE BONDS AND INHIBITORY ACTIVITY AGAINST SERINE PROTEASES, DERIVED HYBRID PEPTIDES THEREOF, AND USES THEREOF” (INSTITUTE OF MATERIA MEDICA , CHINESE ACADEMY OF MEDICAL …, priority 2020, published 2023)
Read-outs that look alike come from different tables or passages of the source.

Legend:
DPP-IV = DPP-IV (Homo sapiens, UniProt P27487); assay: Tolerance of GLP-1 and its analogues to DPP-IV (RP-HPLC remaining peak area); format: in vitro ADME; conditions: peptide 25 μM, DPP-IV 0.5 ng/μL, 37° C.; for Remaining peak area (%)/DPP-IV: 0.0 h; for remaining at 0.5 h, 25 μM / remaining at 2 h, 25 μM / remaining at 4 h, 25 μM / remaining at 8 h, 25 μM / remaining at 12 h, 25 μM: isolated DPP-IV enzyme in buffer, pH 8
Procedure: (§1) Mix by centrifugation at 8000 rpm for 30 seconds.
(2) Arrange a certain volume of 0.005 μg/μL DPP-IV solution in another sterile EP.

trypsin = target: T1, trypsin (Bos taurus, UniProt P00760); assay: in vitro; conditions: isolated enzyme trypsin, pH 7.8
T1 sequence (P00760 24-246): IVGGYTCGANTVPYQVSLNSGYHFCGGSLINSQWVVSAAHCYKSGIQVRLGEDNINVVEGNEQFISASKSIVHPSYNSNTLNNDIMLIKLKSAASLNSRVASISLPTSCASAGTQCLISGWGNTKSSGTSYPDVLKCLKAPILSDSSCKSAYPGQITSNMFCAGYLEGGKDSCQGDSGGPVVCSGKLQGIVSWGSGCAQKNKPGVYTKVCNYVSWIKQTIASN
How it was run: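 Peptides were preincubated for 5 min at 37 °C and then digested with 0.05 μg/μL trypsin solution (stock). Remaining intact peptide was quantified as RP-HPLC peak area.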

chymotrypsin = chymotrypsin (Bos taurus, UniProt P00766); assay: in vitro; conditions: isolated enzyme chymotrypsin, pH 7.8, Remaining peak area (%)/chymotrypsin
How it was run: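 Peptide and 0.05 μg/μL chymotrypsin were preincubated at 37 °C for 5 min, then mixed. Aliquots taken from 1.5 up to 60.0 min were quenched with 10% TFA, and remaining peptide was measured as RP-HPLC peak area.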

NEP24.11 = NEP24.11 (Homo sapiens, UniProt P08473); assay: Tolerance of GLP-1 and its analogues to NEP24.11 (RP-HPLC remaining peak area); format: in vitro ADME; conditions: peptide 30 μM, NEP24.11 1.0 ng/μL; for Remaining peak area (%)/NEP24.11: 0.0 h; for remaining at 0.5 h, 30 μM / remaining at 2 h, 30 μM / remaining at 4 h, 30 μM / remaining at 8 h, 30 μM: isolated NEP24.11 enzyme in buffer; for remaining at 0.5 h, 30 μM: pH 7.4, 0.5 h; for remaining at 2 h, 30 μM: pH 7.4, 2.0 h; for remaining at 4 h, 30 μM: pH 7.4, 4.0 h
Procedure: as §1
Arrange a certain volume of 0.04 μg/μL NEP24.11 enzyme solution in another sterile EP.

[1] = Stability of GLP-1 and its analogues in human serum; conditions: 25% (v/v) human serum; for Remaining peak area (%)/human serum: 0.0 h, peptide 0.03 mM, 37° C.; for remaining at 0.5 h, 0.03 mM / remaining at 2 h, 0.03 mM / remaining at 4 h, 0.03 mM / remaining at 8 h, 0.03 mM / remaining at 12 h, 0.03 mM: human, pH 7
[2] = pH 7.4, 8.0 h, 37° C., read-out: Remaining peak area (%)/NEP24.11

NEP24.11, sequence (P08473 whole entry): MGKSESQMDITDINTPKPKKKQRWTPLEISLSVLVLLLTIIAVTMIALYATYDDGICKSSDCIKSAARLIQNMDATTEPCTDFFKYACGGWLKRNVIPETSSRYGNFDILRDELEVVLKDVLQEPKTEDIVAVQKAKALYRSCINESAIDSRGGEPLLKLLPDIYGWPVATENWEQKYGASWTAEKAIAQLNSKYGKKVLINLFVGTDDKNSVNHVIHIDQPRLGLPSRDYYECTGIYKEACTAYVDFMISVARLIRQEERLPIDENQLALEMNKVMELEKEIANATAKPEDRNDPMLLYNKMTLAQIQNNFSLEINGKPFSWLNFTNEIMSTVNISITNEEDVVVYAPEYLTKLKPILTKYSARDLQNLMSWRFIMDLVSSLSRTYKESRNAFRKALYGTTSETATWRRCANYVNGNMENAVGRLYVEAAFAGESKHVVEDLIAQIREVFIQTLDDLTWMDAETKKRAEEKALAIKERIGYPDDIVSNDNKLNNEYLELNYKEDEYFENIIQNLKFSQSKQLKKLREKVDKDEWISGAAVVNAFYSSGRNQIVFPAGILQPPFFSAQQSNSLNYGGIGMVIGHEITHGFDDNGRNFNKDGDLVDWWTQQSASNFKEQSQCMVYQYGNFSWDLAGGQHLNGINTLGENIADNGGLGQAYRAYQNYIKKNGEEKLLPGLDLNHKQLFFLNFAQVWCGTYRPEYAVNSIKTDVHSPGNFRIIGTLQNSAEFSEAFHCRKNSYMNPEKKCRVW
DPP-IV, sequence (P27487 whole entry, species assumed): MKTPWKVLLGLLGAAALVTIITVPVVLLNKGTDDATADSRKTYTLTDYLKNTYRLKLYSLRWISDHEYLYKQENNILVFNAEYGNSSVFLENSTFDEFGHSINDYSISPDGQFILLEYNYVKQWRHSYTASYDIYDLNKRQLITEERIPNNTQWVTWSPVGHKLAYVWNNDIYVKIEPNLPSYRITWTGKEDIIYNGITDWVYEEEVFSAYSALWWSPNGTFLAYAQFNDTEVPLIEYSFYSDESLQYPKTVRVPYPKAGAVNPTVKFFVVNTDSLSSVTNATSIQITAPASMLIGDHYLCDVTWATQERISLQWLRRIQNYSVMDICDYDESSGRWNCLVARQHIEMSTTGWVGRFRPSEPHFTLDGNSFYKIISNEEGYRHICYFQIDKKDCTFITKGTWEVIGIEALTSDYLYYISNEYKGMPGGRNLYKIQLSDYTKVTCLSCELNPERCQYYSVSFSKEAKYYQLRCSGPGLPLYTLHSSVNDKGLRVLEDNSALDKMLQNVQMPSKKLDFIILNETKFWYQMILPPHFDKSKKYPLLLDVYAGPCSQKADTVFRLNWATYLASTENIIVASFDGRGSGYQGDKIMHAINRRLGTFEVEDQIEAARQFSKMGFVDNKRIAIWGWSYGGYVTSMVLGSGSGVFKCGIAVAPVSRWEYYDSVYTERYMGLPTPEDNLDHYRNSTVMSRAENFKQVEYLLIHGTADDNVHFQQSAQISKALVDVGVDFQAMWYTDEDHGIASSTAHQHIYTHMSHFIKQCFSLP

| remaining at 0.025 h, 60 μM (trypsin) | remaining at 0.05 h, 60 μM (trypsin) | remaining at 0.075 h, 60 μM (trypsin) | remaining at 0.1 h, 60 μM (trypsin) | remaining at 0.15 h, 60 μM (trypsin) | remaining at 0.25 h, 60 μM (trypsin) | remaining at 0.5 h, 60 μM (trypsin) | remaining at 1 h, 60 μM (trypsin) | remaining at 0.025 h, 60 μM (chymotrypsin) | remaining at 0.075 h, 60 μM (chymotrypsin) | remaining at 0.1 h, 60 μM (chymotrypsin) | remaining at 0.15 h, 60 μM (chymotrypsin) | SMILES | Remaining peak area (%)/DPP-IV (DPP-IV) | remaining at 0.5 h, 25 μM (DPP-IV) | remaining at 2 h, 25 μM (DPP-IV) | remaining at 4 h, 25 μM (DPP-IV) | remaining at 8 h, 25 μM (DPP-IV) | remaining at 12 h, 25 μM (DPP-IV) | Remaining peak area (%)/NEP24.11 (NEP24.11; 37° C.) | remaining at 0.5 h, 30 μM (NEP24.11; 37° C.) | also measured |
| --- | --- | --- | --- | --- | --- | --- | --- | --- | --- | --- | --- | --- | --- | --- | --- | --- | --- | --- | --- | --- | --- |
| 97.3 ± 8.8% | 96.6 ± 2% | 90.4 ± 2.4% | 90.3 ± 2.5% | 89.7 ± 3.4% | 87.3 ± 2.6% | 88.6 ± 4.4% | 87.7 ± 6.2% | 68.7 ± 1.6% | 57.4 ± 2.7% | 53.1 ± 0.5% | 49.8 ± 2.8% | CC[C@H](C)[C@H](NC(=O)[C@H](Cc1ccccc1)NC(=O)[C@H](CCC(=O)O)NC(=O)[C@H](CCCCN)NC(=O)[C@H](C)NC(=O)[C@H](C)NC(=O)[C@H](CCC(N)=O)NC(=O)CNC(=O)[C@H](CCC(=O)O)NC(=O)[C@H](CC(C)C)NC(=O)[C@H](Cc1ccc(O)cc1)NC(=O)[C@H](CO)NC(=O)[C@H](CO)NC(=O)[C@@H](NC(=O)[C@H](CC(=O)O)NC(=O)[C@H](CO)NC(=O)[C@@H](NC(=O)[C@H](Cc1ccccc1)NC(=O)[C@@H](NC(=O)CNC(=O)[C@H](CCC(=O)O)NC(=O)[C@H](C)NC(=O)[C@H](Cc1c[nH]cn1)NC(=O)CNC(=O)CNC(=O)[C@@H](NC(=O)[C@@H]1CCCN1C(=O)[C@@H](NC(=O)CNC(=O)CNC(=O)[C@@H]1CCCN1C(=O)[C@H](Cc1ccccc1)NC(=O)[C@@H]1CSSC[C@H](NC(=O)[C@H](CCCNC(=N)N)NC(=O)CN)C(=O)N[C@@H]([C@@H](C)O)C(=O)N[C@@H](CCCCN)C(=O)N[C@@H](CO)C(=O)N[C@@H]([C@@H](C)CC)C(=O)N2CCC[C@H]2C(=O)N2CCC[C@H]2C(=O)N[C@@H]([C@@H](C)CC)C(=O)N1)[C@@H](C)CC)[C@@H](C)CC)[C@@H](C)O)[C@@H](C)O)C(C)C)C(=O)N[C@@H](C)C(=O)N[C@@H](Cc1c[nH]c2ccccc12)C(=O)N[C@@H](CC(C)C)C(=O)N[C@H](C(=O)N[C@@H](CCCCN)C(=O)NCC(=O)N[C@@H](CCCNC(=N)N)C(=O)NCC(=O)NCC(=O)N[C@@H](CCCCN)C(=O)O)C(C)C [BT1-D-GLP-1] | 100.0 ± 0.0% | 72.3 ± 2.4% | 75.3 ± 1.5% | 72.6 ± 2% | 82 ± 3.2% | 82.5 ± 4.9% | 100.0 ± 0.0% | 88.2 ± 2.4% | remaining at 0.05 h, 60 μM (chymotrypsin): 61.9 ± 1.5%; remaining at 2 h, 30 μM (NEP24.11; 37° C.): 85.2 ± 0.5%; remaining at 4 h, 30 μM (NEP24.11; 37° C.): 79.1 ± 3.2%; remaining at 8 h, 30 μM (NEP24.11; [2]): 74 ± 1.3%; Remaining peak area (%)/human serum [1]: 100.0 ± 0.0%; serum stability (in words) [1]: good serum stability; remaining at 0.5 h, 0.03 mM [1]: 68.9 ± 7.1%; remaining at 2 h, 0.03 mM [1]: 95.1 ± 7.5%; remaining at 4 h, 0.03 mM [1]: 89.4 ± 7.9%; remaining at 8 h, 0.03 mM [1]: 54.8 ± 4.1%; remaining at 12 h, 0.03 mM [1]: 49.7 ± 2.5% |
| 76.6 ± 3% | 76.7 ± 9.1% | 77 ± 2.4% | 79.2 ± 3.1% | 80.2 ± 1% | 79.1 ± 2.2% | 75.8 ± 3.8% | 77.7 ± 0.5% | 54.9 ± 6.6% | 28.7 ± 2.4% | 19.2 ± 1.3% | 9 ± 0.9% | CC[C@H](C)[C@H](NC(=O)[C@H](Cc1ccccc1)NC(=O)[C@H](CCC(=O)O)NC(=O)[C@H](CCCCN)NC(=O)[C@H](C)NC(=O)[C@H](C)NC(=O)[C@H](CCC(N)=O)NC(=O)CNC(=O)[C@H](CCC(=O)O)NC(=O)[C@H](CC(C)C)NC(=O)[C@H](Cc1ccc(O)cc1)NC(=O)[C@H](CO)NC(=O)[C@H](CO)NC(=O)[C@@H](NC(=O)[C@H](CC(=O)O)NC(=O)[C@H](CO)NC(=O)[C@@H](NC(=O)[C@H](Cc1ccccc1)NC(=O)[C@@H](NC(=O)CNC(=O)[C@H](CCC(=O)O)NC(=O)[C@H](C)NC(=O)[C@H](Cc1c[nH]cn1)NC(=O)CNC(=O)CNC(=O)[C@@H](NC(=O)[C@@H]1CCCN1C(=O)[C@@H](NC(=O)CNC(=O)CNC(=O)[C@H](Cc1ccccc1)NC(=O)[C@@H]1CSSC[C@H](N)C(=O)NCC(=O)N[C@@H](CCCNC(=N)N)C(=O)N[C@@H](C)C(=O)N[C@@H]([C@@H](C)O)C(=O)N[C@@H](CCCCN)C(=O)N[C@@H](CO)C(=O)N[C@@H]([C@@H](C)CC)C(=O)N2CCC[C@H]2C(=O)N2CCC[C@H]2C(=O)N[C@@H]([C@@H](C)CC)C(=O)N1)[C@@H](C)CC)[C@@H](C)CC)[C@@H](C)O)[C@@H](C)O)C(C)C)C(=O)N[C@@H](C)C(=O)N[C@@H](Cc1c[nH]c2ccccc12)C(=O)N[C@@H](CC(C)C)C(=O)N[C@H](C(=O)N[C@@H](CCCCN)C(=O)NCC(=O)N[C@@H](CCCNC(=N)N)C(=O)NCC(=O)NCC(=O)N[C@@H](CCCCN)C(=O)O)C(C)C [BT9-D-GLP-1] | 100.0 ± 0.0% | 81.1 ± 1% | 77.9 ± 2.9% | 79.1 ± 1.3% | 78.8 ± 0.6% | 72.4 ± 1.9% | 100.0 ± 0.0% | 79.8 ± 3.5% | remaining at 2 h, 30 μM (NEP24.11; 37° C.): 60.2 ± 1.8%; remaining at 4 h, 30 μM (NEP24.11; 37° C.): 56.1 ± 3.4%; remaining at 8 h, 30 μM (NEP24.11; [2]): 48.4 ± 1.4%; Remaining peak area (%)/human serum [1]: 100.0 ± 0.0%; serum stability (in words) [1]: good serum stability; remaining at 0.5 h, 0.03 mM [1]: 65.6 ± 14.7%; remaining at 2 h, 0.03 mM [1]: 38.5 ± 13.3%; remaining at 4 h, 0.03 mM [1]: 28%; remaining at 8 h, 0.03 mM [1]: 13.7%; remaining at 12 h, 0.03 mM [1]: 19.6 ± 1.2% |
| 96.9 ± 3.1% | 100 ± 2.5% | 96.5 ± 2.1% | 97.3 ± 3.6% | 98 ± 3.1% | 95.9 ± 3.2% | 98.1 ± 4.4% | 91 ± 7.6% | 67.1 ± 4.9% | 47.1 ± 1.4% | 40.4 ± 1% | 31.3 ± 0.7% | CC[C@H](C)[C@H](NC(=O)[C@H](Cc1ccccc1)NC(=O)[C@H](CCC(=O)O)NC(=O)[C@H](CCCCN)NC(=O)[C@H](C)NC(=O)[C@H](C)NC(=O)[C@H](CCC(N)=O)NC(=O)CNC(=O)[C@H](CCC(=O)O)NC(=O)[C@H](CC(C)C)NC(=O)[C@H](Cc1ccc(O)cc1)NC(=O)[C@H](CO)NC(=O)[C@H](CO)NC(=O)[C@@H](NC(=O)[C@H](CC(=O)O)NC(=O)[C@H](CO)NC(=O)[C@@H](NC(=O)[C@H](Cc1ccccc1)NC(=O)[C@@H](NC(=O)CNC(=O)[C@H](CCC(=O)O)NC(=O)[C@H](C)NC(=O)[C@H](Cc1c[nH]cn1)NC(=O)CNC(=O)CNC(=O)[C@@H](NC(=O)[C@@H]1CCCN1C(=O)[C@@H](NC(=O)CN)[C@@H](C)CC)[C@@H](C)CC)[C@@H](C)O)[C@@H](C)O)C(C)C)C(=O)N[C@@H](C)C(=O)N[C@@H](Cc1c[nH]c2ccccc12)C(=O)N[C@@H](CC(C)C)C(=O)N[C@H](C(=O)N[C@@H](CCCCN)C(=O)NCC(=O)N[C@@H](CCCNC(=N)N)C(=O)NCC(=O)NCC(=O)N[C@@H](CCCCN)C(=O)NCC(=O)N[C@@H](CCCNC(=N)N)C(=O)N[C@H]1CSSC[C@@H](C(=O)N[C@@H](Cc2ccccc2)C(=O)N2CCC[C@H]2C(=O)O)NC(=O)[C@H]([C@@H](C)CC)NC(=O)[C@@H]2CCCN2C(=O)[C@@H]2CCCN2C(=O)[C@H]([C@@H](C)CC)NC(=O)[C@H](CO)NC(=O)[C@H](CCCCN)NC(=O)[C@H]([C@@H](C)O)NC1=O)C(C)C [D-GLP-1-BT1] | 100.0 ± 0.0% | 88 ± 6.2% | 95.9 ± 2.3% | 96.9 ± 2% | 92 ± 3.9% | 79 ± 4.6% | 100.0 ± 0.0% | 80.3 ± 3.6% | remaining at 0.05 h, 60 μM (chymotrypsin): 55.2 ± 0.6%; remaining at 2 h, 30 μM (NEP24.11; 37° C.): 85.8 ± 2.7%; remaining at 4 h, 30 μM (NEP24.11; 37° C.): 80.1 ± 2.1%; remaining at 8 h, 30 μM (NEP24.11; [2]): 78.2 ± 3.9%; remaining at 8 h, 30 μM (NEP24.11; pH 7.4, 8 hours, read-out: remaining amount after NEP24.11 hydrolysis): ~80%; Remaining peak area (%)/human serum [1]: 100.0 ± 0.0%; serum stability (in words) [1]: good serum stability; remaining at 0.5 h, 0.03 mM [1]: 88.2%; remaining at 2 h, 0.03 mM [1]: 92 ± 5.9%; remaining at 4 h, 0.03 mM [1]: 78.7 ± 5.7%; remaining at 8 h, 0.03 mM [1]: 58.2%; remaining at 12 h, 0.03 mM [1]: 43.6 ± 0.3% |
